{
  "source": "patent US20130196991A1",
  "about": "“SUBSTITUTED INDOLES, ANTIVIRAL ACTIVE COMPONENT, METHOD FOR PREPARATION AND USE THEREOF” (priority 2010, published 2013)",
  "note": "pIC50: −log10 of the molar value. Where a name gives a salt, the structure may show the parent alone.",
  "data": [
    {"test_system": "JFH-1 HCV", "assay": "microbe, parasite or virus in culture", "assay_type": "cell-based, hepatitis C virus (HCV)", "conditions": "Hepatitis C virus, Huh-7, read-out: Inhibition of hepatitis C virus (IC50)", "procedure": "(§1) Determination of antiviral activity of compounds of the general formula 1 towards hepatitis C viruses.\n(§2) Determination of antiviral activity of compounds of the general formulas 1, 1.1, 1.2, 1.3, 1.3.1, 1.3.1.1 towards HCV was carried out on Huh7 cell culture. Immune in vitro (ELISA—enzyme-linked immunosorbent assay) test ELISA towards HCV virus cor-antigen was used. By means of this test inhibition effectiveness of antigen production (and, consequently, virus replication) by tested compounds in cells infected by JFH-1 virus was measured. Used in this experiment Huh7 cell culture having been infected with HCV virus is capable to support full range of viral replication.\n(§3) Recombinant JFH-1 HCV virus used in the experiment was prepared by means of transfection of Huh7 cells by RNA JFH-1, prepared by transcription in vitro. JFH-1 DNA [Wakita, T. u ∂p. Production of Infectious Hepatitis C Virus in Tissue Culture from a Cloned Viral Genome. Nature Medicine 2005, 11:791-796.]) used as DNA matrix for transcription (NCBI, catalogue number AB047639, was synthesized chemically.\n(§4) Huh7 cells were sowed in 96-well plates (3.0×10^3 cells in every well) Huh-7 medium (50 μl per every well). 9 solutions of every tested compound in Huh-7 medium in the range of concentrations of 0.09-200 μM were prepared. In 4 h after cell sowing the initial solution was removed by aspiration, after that 50 μl of tested compound solution and 50 μl of JFH-1 HCV were added to every well. As a result, the final concentrations of the tested compounds were in the range of 0.045-100 μM. If required the step of infection was carried out in 24 h after addition of tested compounds. After incubation for 16 h viral medium was removed by aspiration, and the tested compounds were added to the cultures in initial concentration to final value of 200 μl. The cells and tested compounds were incubated additionally for 4 days at 37° C. in the atmosphere of air containing 5% CO2. After the removal of nutrient solution the cells were fixed by addition of acetone/methanol (1:1) mixture in amount of 250 μl/well for 1 minute, washed three times with Phosphate Buffer (PBS buffer and then they were blocked by 10% FBS-PBS solution (150 μl/well)) for 1 h at room temperature. Each well was washed three times with PBS solution, incubated with mouse monoclonal antibodies to HCV cor-antigen (Affinity BioReagents, Catalogue: MA1-080), dissolved in FBS-PBS buffer (100 μl/well, prepared from the initial concentrate, diluted in the ratio 1:500 in 10% FBS-PBS), for 2 h at 37° C. Each well was washed three times with PBS solution, incubated with antibodies specific to mouse immunoglobulins, conjugated with horseradish peroxidase (HRP, 100 mkl/well of solution prepared from the initial concentrate, diluted in ratio 1:2500 in 10% FBS-PBS) for 1 h at 37° C. Each well was washed three times with PBS solution, then treated with OPD solution in amount of 100 μl/well (prepared by dilution of one OPD tablet in B 12 ml of citrate/phosphate buffer with addition of 5 μl of 30% H2O2) for 30 min in darkness at room temperature. The reaction was stopped by addition of 2N H2SO4 (100 μl/well), after that optical density at 490 nm was measured. IC50 value representing the concentration of the tested compound at which virus replication is lowered twice was calculated for every tested compound using Xlfit program according to the method described in [Wakita, T. u ∂p. (2005). Production of Infectious Hepatitis C Virus in Tissue Culture from a Cloned Viral Genome. Nature Medicine; 11:791-796.].", "values": [
      {"molecule": "CC(C)c1ccc2c(c1)c1c3n2CCN(CC(N)=O)C3CCC1", "note": "(centres unmarked) [1.2(1), 2-(8-isopropyl-1,2,3a,4,5,6-hexahydro-3H-pyrazino[3,2,1-jk]carbazol-3-yl)-acetamide]", "pIC50": 5.77},
      {"molecule": "c1ccc(CN2CCCn3c4c(c5cc(C6CCCCC6)ccc53)CCCC42)cc1", "note": "(centres unmarked) [1.2(8)]", "pIC50": 5.80},
      {"molecule": "CCCN1CCN(C(=O)C2CCN(Cc3cc4ccccc4n3Cc3ccc(Cl)cc3)CC2)CC1", "note": "[1.3.1.1(13), {1-[1-(4-chlorobenzyl)-1H-indol-2-ylmethyl]-piperidin-4-yl}-(4-propylpiperazin-1-yl)-methanone]", "pIC50": 6.52},
      {"molecule": "CCCN1CCN(C(=O)C2CCN(Cc3cc4ccccc4n3C)CC2)CC1", "note": "[1.3.1.1(14) * 2 HCl, 1-Methyl-2-({4-[(4-propylpiperazin-1-yl)carbonyl]piperidin-1-yl}methyl)-1H-indole dihydrochloride]", "pIC50": 5.68},
      {"molecule": "CN1CCN(C(=O)C2CCN(Cc3cc4ccccc4n3C)CC2)CC1", "note": "[1.3.1.1(15) * 2 HCl, 1-Methyl-2-({4-[(4-methylpiperazin-1-yl)carbonyl]piperidin-1-yl}methyl)-1H-indole]", "pIC50": 5.62},
      {"molecule": "CCCN1CCN(C(=O)C2CCCN(Cc3cc4ccccc4n3Cc3ccc(Cl)cc3)C2)CC1", "note": "(centres unmarked) [1.3.2.1(13) * 2 HCl, 1-(4-chlorobenzyl)-2-({3-[(4-propylpiperazin-1-yl)carbonyl]piperidin-1-yl}methyl)-1H-indole dihydrochloride]", "pIC50": 6.40},
      {"molecule": "Clc1ccc(Cn2c(CN3CCCC3)nc3ccccc32)cc1", "note": "[I Control, Clemizole, reference compound]", "pIC50": 5.05}
    ]},
    {"test_system": "JFH-1 HCV", "assay": "microbe, parasite or virus in culture", "assay_type": "cell-based, hepatitis C virus (HCV)", "conditions": "Huh7 cell culture infected with recombinant JFH-1 HCV; ELISA of cor-antigen; concentration at which virus replication is lowered twice; read-out: Inhibition of hepatitis C virus (IC50)", "procedure": "as §1, §2, §3, §4", "values": [
      {"molecule": "CCCN1CCN(C(=O)C2CCCN(Cc3cc4ccccc4n3C)C2)CC1", "note": "(centres unmarked) [1.3.2.1(14) * 2 HCl, 1-Methyl-2-({3-[(4-propylpiperazin-1-yl)carbonyl]piperidin-1-yl}methyl-1H-indoledihydrochloride]", "pIC50": 5.68}
    ]}
  ]
}
